T/C data for 22 molecules are collected here from PubChem BioAssay AID292 (DTP/NCI, 2004).

Several values for one entry are separate records, joined by “and”; a condition that tells them apart may be missing. Equal values may be shown once. Inconclusive results and toxic doses are left out.

The test system of this assay is B6C3F1 mice, ip Sarcoma M5076, median survival T/C. Description: NCI In Vivo Anticancer Drug Screen. Data for tumor model Sarcoma M5076 (intraperitoneal) in B6C3F1 mice. The settings on record: endpoint: median survival time, schedule: Q04DX004 (ip), higher = longer survival. The essentials:
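The readout is a ratio of survival in drug-treated animals to survival in animals given vehicle alone, taken in mice bearing a transplanted tumour line.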

Setting [1] is: dose: 50.0 mg/kg/injection, vehicle: suspension in saline.
The mark [2] stands for this setting: dose: 100.0 mg/kg/injection, vehicle: suspension in saline.
Where [3] appears, read: dose: 200.0 mg/kg/injection, vehicle: suspension in saline.
Setting [4] is: dose: 25.0 mg/kg/injection, vehicle: water.
Setting [5] is: dose: 50.0 mg/kg/injection, vehicle: water.
[6] abbreviates: dose: 12.5 mg/kg/injection, vehicle: saline with Tween-80.
[7] abbreviates: dose: 25.0 mg/kg/injection, vehicle: saline with Tween-80.
Where [8] appears, read: dose: 50.0 mg/kg/injection, vehicle: saline with Tween-80.
Where [9] appears, read: dose: 100.0 mg/kg/injection, vehicle: saline with Tween-80.
The mark [10] stands for this setting: dose: 200.0 mg/kg/injection, vehicle: saline with Tween-80.
The mark [11] stands for this setting: dose: 400.0 mg/kg/injection, vehicle: saline with Tween-80.
[12] abbreviates: dose: 800.0 mg/kg/injection, vehicle: saline with Tween-80.
The mark [13] stands for this setting: dose: 50.0 mg/kg/injection, vehicle: Klucel (hydroxypropylcellulose) (HPC).
Where [14] appears, read: dose: 100.0 mg/kg/injection, vehicle: Klucel (hydroxypropylcellulose) (HPC).
The mark [15] stands for this setting: dose: 200.0 mg/kg/injection, vehicle: Klucel (hydroxypropylcellulose) (HPC).
[16] abbreviates: dose: 400.0 mg/kg/injection, vehicle: Klucel (hydroxypropylcellulose) (HPC).
Setting [17] is: dose: 100.0 mg/kg/injection, vehicle: water.
[18] abbreviates: dose: 200.0 mg/kg/injection, vehicle: water.
Setting [19] is: dose: 50.0 mg/kg/injection, vehicle: saline.
Where [20] appears, read: dose: 100.0 mg/kg/injection, vehicle: saline.
[21] abbreviates: dose: 200.0 mg/kg/injection, vehicle: saline.
[22] abbreviates: dose: 37.5 mg/kg/injection, vehicle: saline with Tween-80.
The mark [23] stands for this setting: dose: 75.0 mg/kg/injection, vehicle: saline with Tween-80.
Where [24] appears, read: dose: 150.0 mg/kg/injection, vehicle: saline with Tween-80.

As to `O=C1C(=O)N(c2cccc(Cl)c2)C(=O)N1Cc1ccccc1`, the T/C by setting is: (dose: 43.75 mg/kg/injection, vehicle: Klucel (hydroxypropylcellulose) (HPC)) 102 % of control; (dose: 87.5 mg/kg/injection, vehicle: Klucel (hydroxypropylcellulose) (HPC)) 97 % of control; (dose: 175.0 mg/kg/injection, vehicle: Klucel (hydroxypropylcellulose) (HPC)) 92 % of control; (dose: 350.0 mg/kg/injection, vehicle: Klucel (hydroxypropylcellulose) (HPC)) 94 % of control; (dose: 700.0 mg/kg/injection, vehicle: Klucel (hydroxypropylcellulose) (HPC)) 88 % of control.
In the case of `CNc1nc(N(C)C)nc(N(C)C)n1`, the T/C is, setting by setting: (dose: 25.0 mg/kg/injection, vehicle: suspension in saline) 92 % of control and 100 % of control; under setting [1], 102 % of control and 109 % of control; under setting [2], 113 % of control and 114 % of control; under setting [3], 117 % of control and 120 % of control.
On to `O=C1N(CCN2CCC3(CC2)OCCO3)CCN1c1cc(Cl)cc(Cl)c1`, for which the T/C was 104 % of control under setting [4] and 102 % of control under setting [5].
Consider `O=C(O)CCCCCCCC(=O)O`, for which the T/C reads like this: (dose: 75.0 mg/kg/injection, vehicle: distilled water + Tween-80) 111 % of control; (dose: 150.0 mg/kg/injection, vehicle: distilled water + Tween-80) 99 % of control; (dose: 300.0 mg/kg/injection, vehicle: distilled water + Tween-80) 93 % of control.
In the case of `COc1cc2oc3c(C)c(=O)cc4oc(-c5ccccc5)cc(c2c2c1CCC(c1ccccc1)O2)c43` (stereo not given), the T/C by setting is: (dose: 1.75 mg/kg/injection, vehicle: Klucel (hydroxypropylcellulose) (HPC)) 109 % of control; (dose: 3.5 mg/kg/injection, vehicle: Klucel (hydroxypropylcellulose) (HPC)) 102 % of control; (dose: 7.0 mg/kg/injection, vehicle: Klucel (hydroxypropylcellulose) (HPC)) 102 % of control; under setting [6], 98 % of control; (dose: 14.0 mg/kg/injection, vehicle: Klucel (hydroxypropylcellulose) (HPC)) 109 % of control; under setting [7], 98 % of control. Further, the T/C reads like this: (dose: 28.0 mg/kg/injection, vehicle: Klucel (hydroxypropylcellulose) (HPC)) 97 % of control; under setting [8], 99 % of control and 100 % of control; under setting [9], 94 % of control and 96 % of control; under setting [10], 96 % of control and 103 % of control; under setting [11], 87 % of control; under setting [12], 110 % of control.
On to `CCOC(=O)/C=C/C(=O)N1CCN(C(=O)/C=C/C(=O)OCC)C(C)C1` (stereo not given), for which the T/C is 98 % of control (dose: 25.0 mg/kg/injection, vehicle: Klucel (hydroxypropylcellulose) (HPC)); 107 % of control under setting [13]; 98 % of control under setting [14]; 108 % of control under setting [15]; 100 % of control under setting [16].
As for `N=C1C=CC2C(=Nc3ccccc3[N+]2=O)N1CCO` (stereo not given), the T/C under setting [7] is 91 % of control, the T/C under setting [8] is 103 % of control, the T/C under setting [9] was 104 % of control and the T/C under setting [10] was 100 % of control.
In the case of `CC1=NN(c2ccccc2)C(=O)C1=Nc1c(C)[nH]n(-c2ccccc2)c1=O`, the T/C under setting [8] is 89 % of control, the T/C under setting [9] was 92 % of control, the T/C under setting [10] is 97 % of control and the T/C under setting [11] was 94 % of control.
For `O=C(Oc1ccccc1)c1cc(O)c(O)c(O)c1`, the T/C under setting [7] is 97 % of control, the T/C under setting [8] is 93 % of control, the T/C under setting [9] was 92 % of control and the T/C under setting [10] was 88 % of control.
`CC[C@@H](C)[C@H]([C@H](CC(=O)N1CCC[C@@H]1[C@@H](OC)[C@H](C)C(=O)N[C@H](Cc1ccccc1)c1nccs1)OC)N(C)C(=O)[C@H](NC(=O)[C@@H](C(C)C)N(C)C)C(C)C`: the T/C reads like this: (dose: 8.0 micrograms/kg/injection, vehicle: saline + alcohol) 153 % of control; (dose: 36.0 micrograms/kg/injection, vehicle: saline + alcohol) 153 % of control.
Consider `Cc1c(O)/c(=C\O)c2nc3c(=O)ccc(C(=O)NCCN(C)C)c3[nH]c2c1=O`, for which the T/C runs as follows: under setting [4], 100 % of control; under setting [5], 107 % of control; under setting [17], 107 % of control; under setting [18], 112 % of control.
On to `O=S(=O)(O)c1cc(N=C=S)ccc1/C=C/c1ccc(N=C=S)cc1S(=O)(=O)O`, for which the T/C reads like this: (dose: 25.0 mg/kg/injection, vehicle: saline) 100 % of control; under setting [19], 103 % of control; under setting [20], 110 % of control; under setting [21], 112 % of control.
As to `COc1ccc(C[C@H](N)C(=O)NC2C(CO)OC(n3cnc4c(N(C)C)ncnc43)C2O)cc1` (stereo not given in full), the T/C was 89 % of control under setting [19]; 117 % of control under setting [20]; 102 % of control under setting [21]; 108 % of control (dose: 400.0 mg/kg/injection, vehicle: saline).
Consider `O=[N+]([O-])c1ccc(/C=C/C=C/C=C/C=C/c2ccc(S(=O)(=O)F)cc2Cl)c(Cl)c1`, for which the T/C is, setting by setting: (dose: 18.75 mg/kg/injection, vehicle: saline with Tween-80) 95 % of control; under setting [22], 96 % of control; under setting [23], 98 % of control.
As to `COc1ccccc1N=C1SCC(=O)N1Cc1ccco1`, the T/C runs as follows: under setting [8], 110 % of control; under setting [9], 122 % of control; under setting [10], 101 % of control; under setting [11], 98 % of control; under setting [12], 102 % of control.
For the molecule `COc1ccc(C(C)c2cc3c(cc2OC)OCO3)cc1` (stereo not given), the T/C is, setting by setting: under setting [8], 115 % of control; under setting [10], 110 % of control.
Regarding `O=C1N=NC2=C1c1c3ccccc3c(O)n1CC2`, the T/C was 97 % of control under setting [4], 95 % of control under setting [5], 93 % of control under setting [17] and 100 % of control under setting [18].
For the molecule `COc1ccc(CCN2C(=O)C(=O)N(c3ccc(Cl)c(Cl)c3)C2=O)cc1OC`, the T/C runs as follows: under setting [13], 99 % of control; under setting [14], 98 % of control; under setting [15], 94 % of control; under setting [16], 89 % of control; (dose: 800.0 mg/kg/injection, vehicle: Klucel (hydroxypropylcellulose) (HPC)) 93 % of control.
Consider `OCC1OC(n2cnc3cc(Cl)c(Cl)cc32)C(O)C1O` (stereo not given), for which the T/C was 104 % of control under setting [24]; 109 % of control (dose: 300.0 mg/kg/injection, vehicle: saline with Tween-80); 107 % of control (dose: 600.0 mg/kg/injection, vehicle: saline with Tween-80).
`CN1COc2c(n(C)c(=O)[nH]c2=O)C1`: the T/C reads like this: under setting [1], 106 % of control; under setting [2], 106 % of control; under setting [3], 105 % of control; (dose: 400.0 mg/kg/injection, vehicle: suspension in saline) 106 % of control; (dose: 800.0 mg/kg/injection, vehicle: suspension in saline) 114 % of control.
As to `COc1ccc(Nc2c3sc4cc(OC)ccc4nc-3c3ccccc3c2=O)cc1`, the T/C is 105 % of control under setting [22], 89 % of control under setting [23] and 86 % of control under setting [24].
For `O=C/C(Cl)=C(/Cl)C(=O)O`, the T/C is 92 % of control (dose: 6.25 mg/kg/injection, vehicle: saline with Tween-80); 104 % of control and 110 % of control under setting [6]; 109 % of control and 119 % of control under setting [7].
